Source: PMC8264935 (ACS Omega, 2021)

Test system: CbTA (ω-transaminase from Chloroflexi bacterium)
Assay: HPLC initial rate, Michaelis-Menten nonlinear fit
Type: biochemical, Chloroflexota bacterium
Conditions: 0.02 mM PLP, glycine-NaOH pH 8.5, 45 °C

SMILES	Km (20 mM (R)-MBA co-substrate) [mM]	Km (20 mM pyruvate co-substrate) [mM]
CC(=O)C(=O)O [C1, pyruvate]	2.83	
C[C@@H](N)c1ccccc1 [(R)-MBA]		14.7
